Reference: patent publication US20170112857A1, “Extended Release Aspirin” (New Haven Pharmaceuticals, Inc., priority 2015, published 2017)
Where two headings read alike, the source gives them in different places.

How the values were obtained:
serum TxB2 = conditions: 75 mg IR ASA; Würtz et al.; cited from earlier work
platelet function = assay: PlateletWorks platelet function at trough level; format: in vivo, human; conditions: Visit 2 trough
Procedure: The platelet function and aggregation measures at trough level were compared between the 81 mg immediate release ASA, 162.5 mg ER ASA (Durlaza®) and 325 mg ER ASA groups. For this study the trough level data are from the following timepoints: (1) for 81 mg—the data at Visit 2; (2) for 162.5 mg ER ASA (Durlaza®)—the data at Visit 3 pre-dose; and (3) for 325 mg ER ASA—the data at Visit 6 pre-dose.
This is unknown for patients with Diabetes and CVD or multiple risk factors.

[1] = Single dose ASA pharmacokinetics, IR ASA vs. ER ASA; format: in vivo, human; conditions: for AUC(0-t) / Cmax / Tmax: human, serum, oral, ASA
Procedure: (§1) Healthy adults were randomized to receive single doses of extended release ASA (“ER ASA”) at a dosage of 20 mg, 40 mg, 81 mg, 162.5 mg ER ASA (Durlaza®; New Haven Pharmaceuticals, Inc., North Haven, Conn.), or 325 mg, or immediate release ASA (“IR ASA”; aspirin powder USP; Letco Medical, Decatur, Ala.) at a dosage of 5 mg, 10 mg, 20 mg, 40 mg or 81 mg. […] For pharmacodynamic assessments, serum 11-dehydro-thromboxane (“TxB2”, a stable metabolite of thromboxane A2) levels were assessed using a validated enzyme immunoassay kit in serial blood samples collected 1 hour before dosing and at 0.5, 1, 2, 4, 8, 16, and 24 hours after drug administration.

[2] = tested on: High Sensitive C-Reactive Protein (hs-CRP); assay: High Sensitive C-Reactive Protein (hs-CRP) test; format: in vivo, human; conditions: V2 pre-dose, 81 mg IR ASA
Procedure: Subjects were also measured for high sensitive C-reactive protein (“hs-CRP”) levels at Visit 1, Visit 2, Visit 3 pre-dose, Visit 3 at 24 hours, Visit 6 pre-dose and Visit 6 at 24 hours.
High Sensitive C-Reactive Protein (“hs-CRP”) was measured using a Seimens Immulite 2000® Xpi analyzer (Immulite 2000 is a registered trademark of Siemens Healthcare Diagnostic, Inc.), prior to 162.5 mg ER ASA (Durlaza®) dosing at Visit 2 pre-dose, at Visit 3 pre-dose and Visit 3 at 24-hr post-dose for the 162.5 mg ER ASA (Durlaza®) dose, and at Visit 6 pre-dose and Visit 6 at 24-hr post-dose for the 325 mg ER ASA dose.

Interleukin-8 (IL-8) = assay: Bradykinin-stimulated Interleukin-8 serum levels (Example 4); format: in vivo, human
Procedure: Subjects of Group 1 were randomly administered a placebo, 81 mg IR ASA and 162.5 mg IR ASA. Subjects of Group 2 were randomly administered a placebo, 81 mg ER ASA and 162.5 mg ER ASA (Durlaza®). Each subject was prohibited from taking any aspirin for two weeks prior to being administered the randomly chosen drug daily for 1 week followed by a urine collection 24 hours after dosing. This protocol was repeated two additional times. For each urine collection TxB2 and 2, 3-dinor-6-keto-PGF1α (“prostacyclin”) levels were measured using gas chromatography-mass spectrometry (“GC/MS”). Statistical analysis was done using Wilcoxon rank sum test for continuous variables and the Pearson test for categorical variables.
Interleukin-8 (“IL-8”) serum levels (and Interleukin-6 levels, not shown) were measured both prior to and after administration of 0, 81 or 162.5 mg of either IR ASA or ER ASA.

[3] = tested on: serum 11-dehydro-thromboxane (TxB2) production; assay: Single dose inhibition of serum TxB2 production (enzyme immunoassay); format: in vivo, human; conditions: highest doses: ER ASA 81 mg, 162.5 mg (Durlaza), 325 mg; IR ASA 40 mg and 81 mg
Procedure: as §1

[4] = tested on: 2, 3-dinor-6-keto-PGF1α (prostacyclin); assay: Urinary 2,3-dinor-6-keto-PGF1α (prostacyclin) excretion by GC/MS, basal and bradykinin-stimulated (Example 3); format: in vivo, human
Procedure: Each subject was prohibited from taking any aspirin for two weeks prior to being administered the randomly chosen drug daily for 1 week followed by a urine collection 24 hours after dosing. This protocol was repeated two additional times. […] Statistical analysis was done using Wilcoxon rank sum test for continuous variables and the Pearson test for categorical variables.

TxB2 = assay: Urinary TxB2 excretion by GC/MS, basal and bradykinin-stimulated (Example 3); format: in vivo, human; conditions: for Basal urinary TxB2 levels over placebo: 24 hours post-dosing; for Bradykinin-stimulated TxB2 levels over placebo: 4 hours post-dosing
Text: […] This protocol was repeated two additional times. […] Statistical analysis was done using Wilcoxon rank sum test for continuous variables and the Pearson test for categorical variables.

[5] = tested on: platelet aggregation / clot strength; assay: Plateletmapping assay (TEG-6S analyzer); format: in vivo, human; conditions: Visit 2 trough
Procedure: The […]® assay ([…] is a registered trademark of Haemoscope Corp.) was conducted using a TEG®-6S analyzer (TEG is a registered trademark of Haemoscope Corp.) and results included parameters: […] For summary purposes the change in each parameter over 24 hours is calculated by subtracting the result at 24 hours from the result at 1 hour (i.e., absolute difference). […] For this study the trough level data are from the following timepoints: (1) for 81 mg-the data at Visit 2; […]

[6] = 81 mg IR, subjects compared with Visit 6 (sub-study)
[7] = single dose 5 mg, healthy adults
[8] = single dose 10 mg, healthy adults
[9] = single dose 20 mg, healthy adults
[10] = single dose 40 mg, healthy adults
[11] = single dose 81 mg, healthy adults

CC(=O)Oc1ccccc1C(=O)O [IR ASA, acetylsalicylic acid]
serum TxB2 levels 24 hours after administration (serum TxB2): significant increase
PlateletWorks (% Agg) AA (platelet function; 81 mg IR QD, main study): 44 ± 19 % Agg
PlateletWorks (% Agg) ADP (platelet function; 81 mg IR QD, main study): 83 ± 15 % Agg
PlateletWorks (% Agg) Collagen (platelet function; 81 mg IR QD, main study): 47 ± 17 % Agg
PlateletWorks (% Agg) AA (platelet function; [6]): 44 ± 16 % Agg
PlateletWorks (% Agg) ADP (platelet function; [6]): 84 ± 10 % Agg
PlateletWorks (% Agg) Collagen (platelet function; [6]): 44 ± 12 % Agg
time required to reach the maximum concentration of ASA ([1]; all doses, single dose, healthy adults): 1 to 2 h
AUC(0-t) ([1]; 5 mg, single dose 5 mg, healthy adults, read-out: AUClast): 26.8 ng·h/mL
AUC(0-t) ([1]; 10 mg, single dose 10 mg, healthy adults, read-out: AUC0-8): 136 ng·h/mL
AUC(0-t) ([1]; 10 mg, single dose 10 mg, healthy adults, read-out: AUClast): 74.9 ng·h/mL
AUC(0-t) ([1]; 20 mg, single dose 20 mg, healthy adults, read-out: AUC0-8): 366 ng·h/mL
AUC(0-t) ([1]; 20 mg, single dose 20 mg, healthy adults, read-out: AUClast): 148 ng·h/mL
AUC(0-t) ([1]; 40 mg, single dose 40 mg, healthy adults, read-out: AUClast): 384 ng·h/mL
AUC(0-t) ([1]; 81 mg, single dose 81 mg, healthy adults, read-out: AUClast): 865 ng·h/mL
Cmax [1, 7]: 25.1 ng/mL
Tmax [1, 7]: 1.2 h
Cmax [1, 8]: 63.9 ng/mL
Tmax [1, 8]: 1.5 h
Cmax [1, 9]: 123 ng/mL
Tmax [1, 9]: 1.6 h
Cmax [1, 10]: 228 ng/mL
Tmax [1, 10]: 1.4 h
Cmax [1, 11]: 504 ng/mL
Tmax [1, 11]: 1.4 h
time period over which serum concentrations of ASA were maintained ([1]; single dose, 8 hours = sampling interval evaluated): 6 h
hs-CRP, Maximum [2]: 57.4 mg/L
hs-CRP, Mean [2]: 9.62 mg/L
hs-CRP, Minimum [2]: 0.44 mg/L
Bradykinin-stimulated IL-8 levels (Interleukin-8 (IL-8); 81 mg): increased
Bradykinin-stimulated IL-8 levels (Interleukin-8 (IL-8); 162.5 mg): increased
single dose inhibition of TxB2 production [3]: maintained during a 24-hour period
Bradykinin-stimulated prostacyclin levels over placebo ([4]; 81 mg): significantly reduced
Basal prostacyclin levels over placebo ([4]; 81 mg daily for 1 week): significantly reduced
Bradykinin-stimulated prostacyclin levels over placebo ([4]; 162.5 mg): significantly reduced
Basal prostacyclin levels over placebo ([4]; 162.5 mg daily for 1 week): significantly reduced
Basal urinary TxB2 levels over placebo (TxB2; 81 mg daily for 1 week): significantly reduced
dose dependence of the effect on TxB2 synthesis (TxB2; 81 mg vs 162.5 mg): not seen
Bradykinin-stimulated TxB2 levels over placebo (TxB2; 81 mg): significantly reduced
Basal urinary TxB2 levels over placebo (TxB2; 162.5 mg daily for 1 week): significantly reduced
Bradykinin-stimulated TxB2 levels over placebo (TxB2; 162.5 mg): significantly reduced
selectivity for basal TxB2 production over prostacyclin production (TxB2; doses of 81 and 162.5 mg/d): selectively inhibit basal TxB2 production over prostacyclin production
TEG PlateletMapping AA Aggregation ([5]; 81 mg IR QD, main study): 48 ± 29
TEG PlateletMapping ADP Aggregation ([5]; 81 mg IR QD, main study): 74 ± 25
TEG PlateletMapping MA (clot strength, mm) ([5]; 81 mg IR QD, main study): 65 ± 5 mm
TEG PlateletMapping MA-AA (mm) ([5]; 81 mg IR QD, main study): 39 ± 15 mm
TEG PlateletMapping MA-ADP (mm) ([5]; 81 mg IR QD, main study): 50 ± 18 mm
TEG PlateletMapping MA-fibrin (mm) ([5]; 81 mg IR QD, main study): 17 ± 11 mm
TEG PlateletMapping R (Clotting time, min) ([5]; 81 mg IR QD, main study): 6.8 ± 1.5 min
TEG PlateletMapping AA Aggregation [5, 6]: 75 ± 17
TEG PlateletMapping ADP Aggregation [5, 6]: 73 ± 21
TEG PlateletMapping MA (clot strength, mm) [5, 6]: 64 ± 3 mm
TEG PlateletMapping MA-AA (mm) [5, 6]: 54 ± 9 mm
TEG PlateletMapping MA-ADP (mm) [5, 6]: 52 ± 11 mm
TEG PlateletMapping MA-fibrin (mm) [5, 6]: 24 ± 12 mm
TEG PlateletMapping R (Clotting time, min) [5, 6]: 7.1 ± 0.7 min
